# Key:
# [1] = system: GluT-1; assay: GluT-1 protein levels in SCC-25 cells (Western blot); format: cell-based, Human; details: 10 and 25 μM, 16 hours, FIG. 1B
# Protocol: Human SSC-25 (squamous cell carcinoma) or rat H9c2 (ventricular cardiomyocyte) cells were grown to confluence in 100 mm culture dishes at 37° C., 10% CO2 in DMEM with 10% fetal calf serum. Cells were then washed twice with PBS and incubated with vehicle control, compound D (10 and 25 μM), or compound C (5, 10, and 20 μM) for 16 hours. Plates were placed on ice, culture supernatant was removed, and lysis buffer-1 (LB-1: 10 mM Tris pH 7.4, 1 mM EDTA, 150 mM sodium chloride, 0.5% IGEPAL) was added. Cell lysates were harvested by scraping, incubated for 15 minutes on ice, and then centrifuged at 3000×g for 5 minutes at 4° C. The supernatant, which represents the cytosolic fraction, was collected and cytosolic proteins were separated under reducing conditions using SDS-polyacrylamide gel electrophoresis (SDS-PAGE) with equal amounts of protein loaded per lane.
# SDS-PAGE was conducted at 150 V for 2 hours, after which the proteins were transferred to a PVDF membrane at 400 mA for 1.5 hours at 4° C. The membrane was incubated in blocking buffer for 2 hours or overnight and washed once with T-TBS prior to addition of anti-GluT-1 antibody (Alpha Diagnostics) diluted to working concentration in blocking buffer. […]
# [2] = system: inducible nitric oxide synthase (iNOS); assay: In vivo iNOS mRNA expression (quantitative PCR); set-up: species or system Swiss Webster male mice; details: mice, oral gavage; within 8 hours following treatment, then returned to control levels; normalized to 18S rRNA; FIG. 10A
# Protocol: To determine gene induction patterns over time, twenty four Swiss Webster male mice (30-32 g) were obtained from Simonsen, Inc. and treated by oral gavage with a 4 ml/kg volume of either 0.5% carboxymethyl cellulose (CMC; Sigma-Aldrich, St. Louis Mo.) (0 mg/kg/day) or […] compound B (25 mg/ml in 0.5% CMC) (100 mg/kg). At 4, 8, 16, 24, 48, or 72 hours after the final dose, animals were anesthetized with isoflurane. The mice were then sacrificed and tissue samples of kidney, liver, brain, lung, and heart were isolated and stored in RNALATER solution (Ambion) at −80° C.
# To investigate the dose response of compounds of the present invention, twelve Swiss Webster male mice (30-32 g) (obtained from Simonsen, Inc., Gilroy Calif.) were treated by oral gavage once per day for 4 days with a 4 ml/kg volume of either 0.5% carboxymethyl cellulose (CMC; Sigma-Aldrich, St. Louis Mo.), compound D (25 mg/ml in 0.5% CMC) (100 mg/kg/day), or compound B (7.5 and 25 mg/ml in 0.5% CMC) (30 and 100 mg/kg/day, respectively). Four hours after the final dose, animals were anesthetized, sacrificed, and approximately 150 mg of liver and each kidney were isolated and stored in RNALATER solution (Ambion) at −20° C.
# Hypertension is a risk factor for diabetes and disorders and diseases associated with diabetes. The effects of compounds of the present invention on regulation of blood pressure were examined as follows. Animals were treated with compound B or compound D and RNA samples were prepared as described above in Example 4. […] Analysis of the relative level of gene expression was performed by quantitative PCR using a FASTSTART DNA MASTER SYBR GREEN I kit (Roche) and gene-specific primers, using a LIGHTCYCLER system (Roche), according to manufacturer's instructions. […]
# The relative level of 18S ribosomal RNA gene expression was measured as a control. Quantitative PCR was performed using a QUANTITECT SYBR GREEN PCR kit (Qiagen) and gene-specific primers, using a LIGHTCYCLER system (Roche), according to manufacturer's instructions. […]
# [3] = system: HIF-1α; assay: HIF-1α stabilization in cells, nuclear fraction Western blot; format: cell-based, Human; details: various cell types, overnight incubation, 20% O2; FIG. 12A
# Protocol: Stabilization of HIFα using compounds and methods of the present invention was examined as follows. Human cells derived from adenovirus-transformed fetal kidney epithelium (293A), cervical epithelial adenocarcinoma (HeLa), hepatocellular carcinoma (Hep3B), squamous carcinoma (SSC-25), and lung fibroblast (HLF) (see, e.g., American Type Culture Collection, Manassas Va.; and Qbiogene, Carlsbad Calif.) were separately seeded into 100 mm culture dishes and grown at 37° C., 20% O2, 10% CO2 in media as follows: HeLa cells in Dulbecco's Modification of Eagle's Medium (DMEM), 2% fetal bovine serum (FBS); HLF cells in DMEM, 10%FBS; 293A cells in DMEM, 5%FBS; and Hep3B cells in Minimal Essential Medium (MEM), Earle's BSS (Mediatech Inc., Herndon Va.), 2 mM L-glutamine, 0.1 mM non-essential amino acids, 1 mM sodium pyruvate, 10% FBS. When cell layers reached confluence, the media was replaced with OPTI-MEM media (Invitrogen Life Technologies, Carlsbad Calif.) and cell layers were incubated for approximately 24 hours in 20% O2, 10% CO2 at 37° C. Compound of the invention (one of compounds B, F, G, and H) or DMSO (0.5 to 1%) was then added to existing medium, and incubation was continued overnight.
# Following incubation, the media was removed, centrifuged, and stored for analysis. […]
compound,measurement,setting,value
"O=C(O)c1c[nH]c2c(ccc3cccnc32)c1=O [compound D, 4-Oxo-1,4-dihydro-[1,10]phenanthroline-3-carboxylic acid]",protein levels of GluT-1,[1],increased
same,expression of the gene encoding iNOS,[2],increased
same,HIFα stabilization (Western blot),[3],stabilized HIFα in a dose-dependent manner

# From patent US8124582B2, “Treatment of diabetes” (FibroGen, Inc., priority 2002, dated 2012)
